Results from ChEMBL document CHEMBL3627608, “Crystal structures of human RIP2 kinase catalytic domain complexed with ATP-competitive inhibitors: Foundations for understanding inhibitor selectivity” (Bioorg Med Chem, 2015).

How the values were obtained:
[1] = molecular target: Dual specificity tyrosine-phosphorylation-regulated kinase 1A (Homo sapiens) (UniProt Q13627); test: Inhibition of DYRK1 (unknown origin) at 10 uM after 120 mins P33 radiolabeled kinase activity assay
[2] = molecular target: Macrophage colony-stimulating factor 1 receptor (Homo sapiens) (UniProt P07333); test: Inhibition of FMS (unknown origin) at 10 uM after 120 mins P33 radiolabeled kinase activity assay
Macrophage colony-stimulating factor 1 receptor (Homo sapiens), sequence (P07333 whole entry): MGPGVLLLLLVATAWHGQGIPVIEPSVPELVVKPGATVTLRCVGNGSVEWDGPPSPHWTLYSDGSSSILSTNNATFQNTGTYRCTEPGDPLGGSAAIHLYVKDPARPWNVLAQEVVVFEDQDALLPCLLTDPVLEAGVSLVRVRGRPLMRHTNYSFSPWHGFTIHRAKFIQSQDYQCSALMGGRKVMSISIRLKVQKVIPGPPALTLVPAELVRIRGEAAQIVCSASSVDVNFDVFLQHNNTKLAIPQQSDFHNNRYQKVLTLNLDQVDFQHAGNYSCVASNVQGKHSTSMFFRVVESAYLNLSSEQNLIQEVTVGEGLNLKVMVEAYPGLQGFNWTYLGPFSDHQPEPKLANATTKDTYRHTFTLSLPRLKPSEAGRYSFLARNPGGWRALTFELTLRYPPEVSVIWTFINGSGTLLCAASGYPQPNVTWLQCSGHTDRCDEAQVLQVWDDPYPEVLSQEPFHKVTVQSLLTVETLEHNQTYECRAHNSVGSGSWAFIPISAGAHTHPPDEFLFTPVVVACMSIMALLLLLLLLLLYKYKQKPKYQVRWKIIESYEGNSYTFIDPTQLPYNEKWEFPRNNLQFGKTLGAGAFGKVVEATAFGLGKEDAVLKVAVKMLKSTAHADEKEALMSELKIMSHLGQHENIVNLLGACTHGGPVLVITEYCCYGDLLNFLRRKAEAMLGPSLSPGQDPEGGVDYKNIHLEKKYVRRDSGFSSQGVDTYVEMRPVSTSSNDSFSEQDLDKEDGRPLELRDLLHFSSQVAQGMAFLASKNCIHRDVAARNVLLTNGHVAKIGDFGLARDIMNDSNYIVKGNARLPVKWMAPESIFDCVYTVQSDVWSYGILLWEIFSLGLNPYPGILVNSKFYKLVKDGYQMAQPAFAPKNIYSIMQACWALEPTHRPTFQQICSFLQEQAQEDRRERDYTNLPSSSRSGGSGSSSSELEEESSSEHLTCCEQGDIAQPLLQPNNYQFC

[3] = molecular target: Serine/threonine-protein kinase Nek4 (Homo sapiens) (UniProt P51957); test: Inhibition of NEK4 (unknown origin) at 10 uM after 120 mins P33 radiolabeled kinase activity assay
Serine/threonine-protein kinase Nek4 (Homo sapiens), sequence (P51957 whole entry, looked up): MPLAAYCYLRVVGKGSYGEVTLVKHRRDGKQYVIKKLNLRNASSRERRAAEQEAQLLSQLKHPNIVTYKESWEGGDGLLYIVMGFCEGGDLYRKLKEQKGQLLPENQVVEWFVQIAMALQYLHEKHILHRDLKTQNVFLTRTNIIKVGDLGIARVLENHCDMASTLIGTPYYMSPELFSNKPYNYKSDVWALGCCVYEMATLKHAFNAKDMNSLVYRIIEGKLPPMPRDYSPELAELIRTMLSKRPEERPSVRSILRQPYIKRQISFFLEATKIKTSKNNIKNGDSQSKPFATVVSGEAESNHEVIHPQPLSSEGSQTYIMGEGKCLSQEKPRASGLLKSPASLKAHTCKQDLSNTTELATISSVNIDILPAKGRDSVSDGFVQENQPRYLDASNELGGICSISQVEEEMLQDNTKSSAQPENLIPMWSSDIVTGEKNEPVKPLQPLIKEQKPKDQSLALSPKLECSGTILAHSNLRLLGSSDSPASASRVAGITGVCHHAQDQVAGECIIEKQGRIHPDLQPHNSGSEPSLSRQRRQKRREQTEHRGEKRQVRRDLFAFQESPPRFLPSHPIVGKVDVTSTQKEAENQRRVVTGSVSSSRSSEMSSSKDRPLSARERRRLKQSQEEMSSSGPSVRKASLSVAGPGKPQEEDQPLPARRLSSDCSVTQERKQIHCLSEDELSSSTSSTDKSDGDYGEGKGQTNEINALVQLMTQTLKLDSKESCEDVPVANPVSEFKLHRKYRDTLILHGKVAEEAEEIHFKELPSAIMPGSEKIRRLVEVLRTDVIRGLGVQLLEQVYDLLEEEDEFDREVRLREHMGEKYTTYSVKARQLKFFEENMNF

[4] = molecular target: Protein kinase C eta type (Homo sapiens) (UniProt P24723); test: Inhibition of PKCeta (unknown origin) at 10 uM after 120 mins P33 radiolabeled kinase activity assay
Protein kinase C eta type (Homo sapiens), sequence (P24723 whole entry): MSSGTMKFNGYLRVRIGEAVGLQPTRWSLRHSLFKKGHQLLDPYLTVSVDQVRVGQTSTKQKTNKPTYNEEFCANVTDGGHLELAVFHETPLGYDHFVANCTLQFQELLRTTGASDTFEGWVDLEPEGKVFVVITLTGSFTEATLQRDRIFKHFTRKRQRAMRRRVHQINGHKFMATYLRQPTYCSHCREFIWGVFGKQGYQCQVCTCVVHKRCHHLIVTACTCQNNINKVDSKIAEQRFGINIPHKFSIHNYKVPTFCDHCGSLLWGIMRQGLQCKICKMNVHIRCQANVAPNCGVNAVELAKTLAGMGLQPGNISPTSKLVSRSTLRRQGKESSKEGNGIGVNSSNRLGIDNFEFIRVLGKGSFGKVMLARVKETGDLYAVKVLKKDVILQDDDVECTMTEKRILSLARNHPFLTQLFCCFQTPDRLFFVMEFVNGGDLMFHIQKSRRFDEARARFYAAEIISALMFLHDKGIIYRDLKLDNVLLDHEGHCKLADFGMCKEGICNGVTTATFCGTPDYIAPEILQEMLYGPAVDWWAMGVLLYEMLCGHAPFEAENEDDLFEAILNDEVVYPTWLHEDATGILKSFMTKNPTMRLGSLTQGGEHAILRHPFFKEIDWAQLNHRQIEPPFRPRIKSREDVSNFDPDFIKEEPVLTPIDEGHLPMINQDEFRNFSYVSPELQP

[5] = molecular target: Tyrosine-protein kinase Lyn (Homo sapiens) (UniProt P07948); test: Inhibition of LYN (unknown origin) at 10 uM after 120 mins P33 radiolabeled kinase activity assay
Tyrosine-protein kinase Lyn (Homo sapiens), sequence (P07948 2-512 limits assumed): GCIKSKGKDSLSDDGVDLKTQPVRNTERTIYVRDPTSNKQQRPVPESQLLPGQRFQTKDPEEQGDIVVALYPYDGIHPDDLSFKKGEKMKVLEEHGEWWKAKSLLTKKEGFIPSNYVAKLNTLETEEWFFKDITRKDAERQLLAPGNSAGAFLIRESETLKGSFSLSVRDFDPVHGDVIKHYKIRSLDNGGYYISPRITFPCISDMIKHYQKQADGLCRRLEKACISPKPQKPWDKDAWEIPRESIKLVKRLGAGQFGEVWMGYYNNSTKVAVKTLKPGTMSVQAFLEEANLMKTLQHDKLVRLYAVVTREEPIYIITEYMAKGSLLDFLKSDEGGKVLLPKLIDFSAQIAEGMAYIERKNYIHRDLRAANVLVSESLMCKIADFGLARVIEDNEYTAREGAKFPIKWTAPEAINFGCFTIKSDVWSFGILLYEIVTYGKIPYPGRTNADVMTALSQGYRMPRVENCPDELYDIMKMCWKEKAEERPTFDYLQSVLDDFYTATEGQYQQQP

[6] = molecular target: Mitogen-activated protein kinase kinase kinase 11 (Homo sapiens) (UniProt Q16584); test: Inhibition of MLK3 (unknown origin) at 10 uM after 120 mins P33 radiolabeled kinase activity assay
Mitogen-activated protein kinase kinase kinase 11 (Homo sapiens), sequence (Q16584 whole entry, looked up): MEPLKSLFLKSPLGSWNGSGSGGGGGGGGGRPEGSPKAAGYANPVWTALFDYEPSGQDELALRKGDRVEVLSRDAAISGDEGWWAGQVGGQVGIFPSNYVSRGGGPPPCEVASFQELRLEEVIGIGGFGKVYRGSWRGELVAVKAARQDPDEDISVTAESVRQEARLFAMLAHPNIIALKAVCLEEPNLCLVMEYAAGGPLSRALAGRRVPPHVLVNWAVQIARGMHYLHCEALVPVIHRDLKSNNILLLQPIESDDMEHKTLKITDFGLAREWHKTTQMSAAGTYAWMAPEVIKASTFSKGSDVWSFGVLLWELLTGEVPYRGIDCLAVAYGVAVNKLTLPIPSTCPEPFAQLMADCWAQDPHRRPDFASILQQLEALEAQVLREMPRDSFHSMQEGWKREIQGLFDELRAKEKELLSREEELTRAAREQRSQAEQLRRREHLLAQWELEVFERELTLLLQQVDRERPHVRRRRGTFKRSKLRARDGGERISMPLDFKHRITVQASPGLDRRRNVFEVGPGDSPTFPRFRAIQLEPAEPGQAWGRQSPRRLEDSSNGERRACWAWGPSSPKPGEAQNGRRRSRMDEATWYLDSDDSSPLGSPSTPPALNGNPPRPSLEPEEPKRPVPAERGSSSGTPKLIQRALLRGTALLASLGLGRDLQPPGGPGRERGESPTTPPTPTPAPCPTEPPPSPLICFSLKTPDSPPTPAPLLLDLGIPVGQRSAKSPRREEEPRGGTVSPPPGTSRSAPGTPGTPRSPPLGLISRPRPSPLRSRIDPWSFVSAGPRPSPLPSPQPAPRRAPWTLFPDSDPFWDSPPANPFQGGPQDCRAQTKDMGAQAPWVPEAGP

[7] = molecular target: MAP kinase-interacting serine/threonine-protein kinase 1 (Homo sapiens) (UniProt Q9BUB5); test: Inhibition of MNK1 (unknown origin) at 10 uM after 120 mins P33 radiolabeled kinase activity assay
MAP kinase-interacting serine/threonine-protein kinase 1 (Homo sapiens), sequence (Q9BUB5 whole entry, looked up): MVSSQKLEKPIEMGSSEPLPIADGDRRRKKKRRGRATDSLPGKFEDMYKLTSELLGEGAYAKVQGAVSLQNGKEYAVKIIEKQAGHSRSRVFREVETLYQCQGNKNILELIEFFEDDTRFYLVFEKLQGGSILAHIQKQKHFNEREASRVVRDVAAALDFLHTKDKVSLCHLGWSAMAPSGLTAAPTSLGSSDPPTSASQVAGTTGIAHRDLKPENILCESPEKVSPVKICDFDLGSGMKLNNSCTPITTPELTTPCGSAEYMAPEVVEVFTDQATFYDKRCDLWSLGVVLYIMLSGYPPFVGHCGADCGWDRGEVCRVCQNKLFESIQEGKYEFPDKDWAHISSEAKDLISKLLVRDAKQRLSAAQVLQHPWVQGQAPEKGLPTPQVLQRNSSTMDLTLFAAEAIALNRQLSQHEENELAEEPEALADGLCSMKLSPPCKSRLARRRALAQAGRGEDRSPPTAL

[8] = molecular target: T1, Myosin-IIIb (Homo sapiens) (UniProt Q8WXR4); test: Inhibition of MYO3b (unknown origin) at 10 uM after 120 mins P33 radiolabeled kinase activity assay
T1 sequence (whole entry): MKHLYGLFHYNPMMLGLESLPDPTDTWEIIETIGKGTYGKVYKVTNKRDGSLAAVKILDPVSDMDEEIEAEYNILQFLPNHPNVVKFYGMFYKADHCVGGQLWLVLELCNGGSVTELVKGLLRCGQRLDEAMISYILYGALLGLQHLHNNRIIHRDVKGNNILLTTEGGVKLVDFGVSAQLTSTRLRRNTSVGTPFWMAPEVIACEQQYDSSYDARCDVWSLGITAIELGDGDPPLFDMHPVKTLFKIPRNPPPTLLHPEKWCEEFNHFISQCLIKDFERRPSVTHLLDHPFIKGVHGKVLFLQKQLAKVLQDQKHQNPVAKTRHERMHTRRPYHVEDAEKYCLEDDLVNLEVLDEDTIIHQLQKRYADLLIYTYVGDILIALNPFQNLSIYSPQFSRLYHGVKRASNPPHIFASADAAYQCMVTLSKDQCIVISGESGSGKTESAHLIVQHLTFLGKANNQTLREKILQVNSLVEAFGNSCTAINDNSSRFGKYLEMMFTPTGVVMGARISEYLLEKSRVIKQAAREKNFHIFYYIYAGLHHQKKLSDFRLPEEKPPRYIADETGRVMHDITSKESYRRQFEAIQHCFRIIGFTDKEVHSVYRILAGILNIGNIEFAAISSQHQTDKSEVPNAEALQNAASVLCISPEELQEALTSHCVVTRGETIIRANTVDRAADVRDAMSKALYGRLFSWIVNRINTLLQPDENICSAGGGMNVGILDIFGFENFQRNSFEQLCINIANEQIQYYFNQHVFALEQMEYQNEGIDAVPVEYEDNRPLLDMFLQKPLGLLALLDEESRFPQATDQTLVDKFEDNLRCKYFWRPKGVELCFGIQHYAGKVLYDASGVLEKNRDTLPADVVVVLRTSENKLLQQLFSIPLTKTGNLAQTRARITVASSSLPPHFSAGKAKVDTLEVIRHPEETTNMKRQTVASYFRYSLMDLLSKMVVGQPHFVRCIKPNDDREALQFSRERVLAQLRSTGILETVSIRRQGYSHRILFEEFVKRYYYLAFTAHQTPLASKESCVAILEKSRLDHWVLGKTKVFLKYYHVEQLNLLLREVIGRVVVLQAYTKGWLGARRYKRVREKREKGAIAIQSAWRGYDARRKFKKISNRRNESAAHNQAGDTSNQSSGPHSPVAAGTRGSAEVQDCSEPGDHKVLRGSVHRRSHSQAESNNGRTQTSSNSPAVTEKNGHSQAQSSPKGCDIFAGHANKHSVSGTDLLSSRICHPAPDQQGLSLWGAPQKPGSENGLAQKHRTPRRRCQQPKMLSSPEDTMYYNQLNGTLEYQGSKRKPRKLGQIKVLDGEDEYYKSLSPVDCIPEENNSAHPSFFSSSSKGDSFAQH

[9] = molecular target: T2, Dual specificity mitogen-activated protein kinase kinase 7 (Homo sapiens) (UniProt O14733); test: Inhibition of MKK7 (unknown origin) at 10 uM after 120 mins P33 radiolabeled kinase activity assay
T2 sequence (whole entry): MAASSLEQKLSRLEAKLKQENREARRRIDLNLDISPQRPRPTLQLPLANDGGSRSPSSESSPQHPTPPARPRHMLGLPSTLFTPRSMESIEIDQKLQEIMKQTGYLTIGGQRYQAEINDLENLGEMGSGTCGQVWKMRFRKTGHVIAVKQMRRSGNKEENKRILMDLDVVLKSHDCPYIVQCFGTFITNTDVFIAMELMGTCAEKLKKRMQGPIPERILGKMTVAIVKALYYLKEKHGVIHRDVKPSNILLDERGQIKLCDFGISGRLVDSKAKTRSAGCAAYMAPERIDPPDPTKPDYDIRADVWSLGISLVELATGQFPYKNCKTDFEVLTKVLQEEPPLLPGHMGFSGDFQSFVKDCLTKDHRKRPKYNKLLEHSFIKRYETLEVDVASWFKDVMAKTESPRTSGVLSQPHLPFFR

| SMILES | inhibition [1] [%] | inhibition [2] [%] | inhibition [3] [%] | inhibition [4] [%] | inhibition [5] [%] | inhibition [6] [%] | inhibition [7] [%] | inhibition [8] [%] | inhibition [9] [%] |
| --- | --- | --- | --- | --- | --- | --- | --- | --- | --- |
| COCCNC(=O)c1ccc2c(c1)nc(-c1cnc(-c3ccc(Cl)cc3)[nH]1)n2CCOC | 9.38 | 5.32 | -2.37 | 0.75 | 61.6 | 6.84 | 28.7 | 2.38 | 2 |
| CS(=O)(=O)c1cccc(Nc2nccc(-c3sc(N4CCOCC4)nc3-c3cccc(NS(=O)(=O)c4c(F)cccc4F)c3)n2)c1 | 31.6 | 43.9 | 59.9 | -5.94 | 100 | 92.7 | 73 | 71.7 | 7.17 |
| CC(C)(C)c1cc(NC(=O)Nc2ccc(Oc3ccncc3)cc2)no1 | 8.89 | 98.2 | 21.7 | -2.64 | 98.2 | 60.1 | 99.6 | 92.5 | 22.7 |
